The text below walks through data of ChEMBL document CHEMBL1125671, “Synthesis and antiviral activity of enantiomeric forms of cyclobutyl nucleoside analogues” (1991).

Holding throughout (assay type): functional
Experiment [1] deals with Mus musculus. Briefly: Subcutaneous efficacy in a mouse cytomegalovirus infection at 50 mg/kg/day; Value expressed as survivors/total tested = 9/10.
For a further experiment, the system named is Murid betaherpesvirus 1. Briefly: compound was tested for antiherpes activity against MCMV(Smith) in tissue culture by plaque reduction assay. Conditions: read-out: ID50 (the source's name). In general terms: In a plaque reduction assay, fewer plaques than in the control indicate reduced infectivity or spread.
The test system of the next experiment is Human alphaherpesvirus 1. Briefly: compound was tested for antiherpes activity against HSV-1(Schooler) in tissue culture by plaque reduction assay. The settings on record: read-out: ID50 (the source's name).
The subject of experiment [2] is Mus musculus. Briefly: Subcutaneous efficacy in a mouse cytomegalovirus infection at 25 mg/kg/day dose; Value expressed as survivors/total tested = 9/10.
The test system of experiment [3] is Mus musculus. Briefly: Mean day of death for total no. of dead mouse at 50 mg/kg/day dose.
Experiment [4] relates to Mus musculus. Briefly: Mean day of death for total no. of dead mouse at 25 mg/kg/day dose.
Experiment [5] deals with Mus musculus. Briefly: Mean day of death for total no. of dead mouse at 12.5 mg/kg/day dose.
The test system of experiment [6] is Mus musculus. Briefly: subcutaneous efficacy of compound in a lethal MCMV infection on mouse. The settings on record: sc, read-out: PD50.
The subject of the next experiment is Human betaherpesvirus 5. Briefly: compound was tested for antiherpes activity against HCMV(AD 169) in tissue culture by plaque reduction assay. Conditions: read-out: ID50 (the source's name).
Another experiment relates to Human alphaherpesvirus 2. Briefly: compound was tested for antiherpes activity against HSV-2(186) in tissue culture by plaque reduction assay. The settings on record: read-out: ID50 (the source's name).
The subject of experiment [7] is Mus musculus. Briefly: Subcutaneous efficacy in a mouse cytomegalovirus infection at 100 mg/kg/day dose; Value expressed as survivors/total tested = 10/10.
For experiment [8], the system named is Mus musculus. Briefly: Subcutaneous efficacy in a mouse cytomegalovirus infection at 12.5 mg/kg/day dose; Value expressed as survivors/total tested = 5/10.
The next experiment has as its system Human alphaherpesvirus 3. Briefly: compound was tested for antiherpes activity against VZV(Ellen) in tissue culture by plaque reduction assay. Conditions: read-out: ID50 (the source's name).
The test system of experiment [9] is Mus musculus. Briefly: Mean day of death for total no. of dead mouse at 12.5 mg/kg/day dosep<0.05.
Experiment [10] concerns Mus musculus. Briefly: Subcutaneous efficacy in a mouse cytomegalovirus infection at 25 mg/kg/day dose; Value expressed as survivors/total tested = 10/10.
For experiment [11], the system named is Mus musculus. Briefly: oral efficacy in a mouse cytomegalovirus infection at 25 mg/kg/day dose; Value expressed as survivors/total tested = 3/10.
Experiment [12] concerns Mus musculus. Briefly: oral efficacy in a mouse cytomegalovirus infection at 50 mg/kg/day dose; Value expressed as survivors/total tested = 6/10.
Experiment [13] relates to Mus musculus. Briefly: oral efficacy in a mouse cytomegalovirus infection at 100 mg/kg/day dose; Value expressed as survivors/total tested = 10/10.
In experiment [14] the test system is Mus musculus. Briefly: Subcutaneous efficacy in a mouse cytomegalovirus infection at 50 mg/kg/day dose; Value expressed as survivors/total tested = 10/10.
For experiment [15], the system named is Mus musculus. Briefly: Subcutaneous efficacy in a mouse cytomegalovirus infection at 6.3 mg/kg/day dose; Value expressed as survivors/total tested = 4/10.
In experiment [16] the test system is Mus musculus. Briefly: Mean day of death for total no. of dead mouse at 6.3 mg/kg/day dose.
Experiment [17] has as its system Mus musculus. Briefly: oral efficacy in a mouse cytomegalovirus infection at 12.5 mg/kg/day dose; Value expressed as survivors/total tested = 1/10.
For experiment [18], the system named is Mus musculus. Briefly: Subcutaneous efficacy in a mouse cytomegalovirus infection at 12.5 mg/kg/day dose; Value expressed as survivors/total tested = 4/10.
Experiment [19] has as its system Mus musculus. Briefly: oral efficacy in a mouse cytomegalovirus infection at 50 mg/kg/day dose; Value expressed as survivors/total tested = 5/10.
For experiment [20], the system named is Mus musculus. Briefly: Mean day of death for total no. of dead mouse at 25 mg/kg/day dosep<0.05.
Experiment [21] deals with Mus musculus. Briefly: Subcutaneous efficacy in a mouse cytomegalovirus infection at 12.5 mg/kg/day dose; Value expressed as survivors/total tested = 7/10.
For experiment [22], the system named is Mus musculus. Briefly: oral efficacy in a mouse cytomegalovirus infection at 25 mg/kg/day dose; Value expressed as survivors/total tested = 1/10.

For `Nc1nc(O)c2ncn(C3C[C@@H](CO)[C@@H]3CO)c2n1` (stereo partly specified), the Survivors alive/total was 9 in the experiment with Mus musculus [1], 9 with Mus musculus [2], 10 in the experiment on Mus musculus [7] and 5 in the experiment with Mus musculus [8]. The IC50 in the experiment with Murid betaherpesvirus 1 is 200 nM; in the experiment on Human alphaherpesvirus 1, 20 nM; in the experiment with Human betaherpesvirus 5 it was 800 nM; in the experiment with Human alphaherpesvirus 2, 20 nM; in the experiment on Human alphaherpesvirus 3, 20 nM. In addition, the results for the “Mean day of death for total dead” value in the experiment with Mus musculus [3], in the experiment on Mus musculus [4] and in the experiment with Mus musculus [5] were 6, 4 and 5.4, respectively. Also, in the experiment on Mus musculus [6], the ED50 amounted to 10 mg/kg/day.
With `Nc1ncnc2c1ncn2C1C[C@H](CO)C1CO` (stereo partly specified), the IC50 in the experiment with Human alphaherpesvirus 1, in the experiment with Human betaherpesvirus 5, in the experiment with Human alphaherpesvirus 2 and with Human alphaherpesvirus 3 was greater than 400000 nM each time.
Take `Nc1ncnc2c1ncn2C1C[C@@H](CO)[C@@H]1CO` (stereo partly specified): the “Mean day of death for total dead” value turned out to be 8.8 in the experiment with Mus musculus [9]; 6.3 with Mus musculus [3]; 3.6 with Mus musculus [4]; 3.9 in the experiment with Mus musculus [5]; 4.4 with Mus musculus [16]. Moreover, the Survivors alive/total in the experiment with Mus musculus [10] came to 10; in the experiment with Mus musculus [11] it was 3; in the experiment with Mus musculus [12] it was 6; in the experiment with Mus musculus [13], 10; in the experiment with Mus musculus [14] it was 10; in the experiment with Mus musculus [15] it was 4. For the same compound, the Survivors alive/total with Mus musculus [7] came out at 10; with Mus musculus [17] it was 1; in the experiment on Mus musculus [18] it was 4. Also, the IC50 in the experiment with Murid betaherpesvirus 1 is 800 nM; in the experiment on Human alphaherpesvirus 1, 2000 nM; with Human betaherpesvirus 5, less than 400 nM; in the experiment with Human alphaherpesvirus 2 it was 2000 nM; in the experiment on Human alphaherpesvirus 3 it was 2000 nM.
For `Nc1ncnc2c1ncn2C1CC(CO)C1CO` (stereo unspecified), the IC50 stood at 2000 nM in the experiment on Murid betaherpesvirus 1; 8000 nM in the experiment with Human alphaherpesvirus 1; 800 nM with Human betaherpesvirus 5; 8000 nM in the experiment with Human alphaherpesvirus 2; 2000 nM in the experiment with Human alphaherpesvirus 3.
For the compound `Nc1nc(O)c2ncn(C3CC(CO)C3CO)c2n1` (stereo unspecified), the IC50 in the experiment on Murid betaherpesvirus 1 worked out at 2000 nM; in the experiment with Human alphaherpesvirus 1, 80 nM; in the experiment with Human betaherpesvirus 5, 4000 nM; in the experiment with Human alphaherpesvirus 2, 40 nM; in the experiment on Human alphaherpesvirus 3, 200 nM.
For `Nc1nc(O)c2ncn([C@H]3CC(CO)[C@@H]3CO)c2n1` (single isomer, unassigned), the IC50 in the experiment on Human alphaherpesvirus 1, in the experiment with Human betaherpesvirus 5, in the experiment with Human alphaherpesvirus 2 and in the experiment on Human alphaherpesvirus 3 was greater than 377000 nM in each case.
With `Nc1nc2c(ncn2COC(CO)CO)c(=O)[nH]1` [GANCICLOVIR], the “Mean day of death for total dead” value with Mus musculus [9] turned out to be 5.7; with Mus musculus [20], 4.8; in the experiment with Mus musculus [3] it was 4.4; in the experiment with Mus musculus [5], 3.6. The Survivors alive/total with Mus musculus [19] was 5; in the experiment with Mus musculus [10], 10; in the experiment with Mus musculus [21], 7; with Mus musculus [22], 1; in the experiment with Mus musculus [14], 10; in the experiment on Mus musculus [7], 10. In the experiment on Mus musculus [17], this compound came in with a Survivors alive/total of 1. Also, the IC50 in the experiment with Murid betaherpesvirus 1 is 4000 nM; in the experiment with Human alphaherpesvirus 1 it was 40 nM; with Human betaherpesvirus 5 it was 2000 nM; in the experiment on Human alphaherpesvirus 2, 40 nM; in the experiment on Human alphaherpesvirus 3, 2000 nM.
